{"source": "patent US6265392A", "about": "“Low oxygen content compositions of 1α, 25-dihydroxycholeclciferol” (Abbott Laboratories, priority 2000, dated 2001)", "origin": "cited, not measured here", "key": {"[1]": {"details": "free molecules and other reactive forms of oxygen; in solution"}, "[2]": {"system": "renal osteodystrophy, hypoparathyroidism, osteomalacia, osteoporosis, hepatic osteodystrophy, vitamin D-resistant rickets, vitamin D-dependent rickets …", "details": "children and adults; literature"}, "[3]": {"system": "intestinal absorption of calcium and phosphorous", "details": "in vivo"}}}
{"smiles": "C=C1/C(=C\\C=C2/CCC[C@]3(C)[C@@H]([C@H](C)CCCC(C)(C)O)CC[C@@H]23)C[C@@H](O)C[C@@H]1O", "note": "[1α,25-dihydroxycholecalciferol]", "values": [{"measurement": "Solubility in organic solvents", "setting": "organic solvents", "value": "soluble in organic solvents"}, {"measurement": "Solubility in water", "setting": "water", "value": "practically insoluble in water"}, {"measurement": "Sensitivity to oxygen", "setting": "[1]", "value": "sensitive to the presence of oxygen"}, {"measurement": "Treatment outcome", "setting": "[2]", "value": "successful treatment"}, {"measurement": "Effect on intestinal absorption of calcium and phosphorous", "setting": "[3]", "value": "stimulates intestinal absorption of calcium and phosphorous"}]}
